Measured values taken from US12209142B2, “SARS-CoV-2 epitope-targeted peptide immunostimulants” (Institute for Systems Biology, priority 2020, dated 2025).
Entries after “also recorded” stand apart in the source; their conditions may differ. Bridges are numbered along the chain shown (N, C = ends). Where no end group is shown, it is not given here. [ ]: non-standard residue; d: D form. Lys(N3) = [N-]=[N+]=NCCCC[C@H](N)C(=O)O; Pra = C#CC[C@H](N)C(=O)O

Legend:
[1] = system: MrkA-expressing K. pneumoniae cells; assay: Whole-cell ELISA of biotinylated PCC binding
[2] = molecular target: T1, full-length recombinant MrkA protein (Klebsiella pneumoniae, UniProt P12267); assay: Sandwich ELISA of PCC binding to full-length MrkA; details: for affinities to MrkA (likely): ELISA, full-length recombinant MrkA; for binding / affinity to full-length MrkA protein (ELISA signal): compared with cy(LLFFF)
T1 construct: purchased MyBiosource MBS1248970
Method: The screen yielded 26 hits (Table 2) that were sequenced, scaled up, and tested for binding to full-length recombinant MrkA in solution by single-point sandwich Enzyme-linked immunoassays (ELISAs) (FIG. 8). HPraGly is present before X1 in each peptide and Az4 follows X5 in each peptide.
An alanine scan was performed to establish which residues of cy(LLFFF) (SEQ ID NO:5) contribute most to MrkA binding. In this assay, a sandwich ELISA is used to quantify the affinity of several cy(LLFFF) (SEQ ID NO:5) analogues, in which one residue is substituted with an alanine, towards full-length MrkA protein. The ELISA results in FIG. 4 show lower signal for every alanine-substituted cy(LLFFF) (SEQ ID NO:5) analogue compared to unmodified cy(LLFFF) (SEQ ID NO:5), establishing that the native compound has the highest affinity. […] Thus, these two C-terminal phenylalanine residues (FIG. 3A, arrows in inset) play critical roles in MrkA binding, and are targets for modifications to improve binding. Another important detail of these alanine scan results is a strong dependence of MrkA binding on the residue position, independent of residue type. For example, cy(LLAFF) (SEQ ID NO:9) and cy(LLFFA) (SEQ ID NO:11) have very different binding affinities, despite having the same phenylalanine-to-alanine substitution.
In vitro ELISA assays. ELISA assays for MrkA-binding and epitope selectivity were performed on clear NeutrAvidin Coated High Capacity Plates (ThermoFisher, 15507). The buffer used for all washes and to dissolve all compounds was TBST+0.1% BSA (TBS+0.05% Tween 20+0.1% BSA, pH 7.3) and, unless otherwise stated, steps were conducted at room temperature. Each wash involved a brief 20 s agitation, and all conjugation, blocking, and incubation steps were performed with gentle agitation over the entire stated time period. The general procedure for an ELISA assay was: wash 3×200 μL/well, conjugate with 2 μM of biotinylated compound for 2 h at room temperature (100 μL/well), wash 3×200 μL/well, blocked overnight in 5 wt % milk at 4° C., wash […] with wash buffer, incubate with titrated compound (e.g., MrkA or epitope) for 1 h, […], incubate with primary antibody […] for 1 h (100 μL/well), wash 3×200 μL/well, incubate with 1:2,000 anti-rabbit secondary antibody-horseradish peroxidase conjugate (Cell signaling Technologies, 7074S) for 1 h, 3×200 μL/well, develop with the Microwell Peroxidase Substrate System (2-C) (SeraCare, 5120-0047) using 100 μL/well for 1-40 minutes, and quench using 1 M H2SO4 (aq.) at 100 μL/well. For MrkA binding assays, biotinylated PCCs were conjugated to the well surface, recombinant MrkA with an N-terminal 6×His-SUMO-tag (MyBiosource, MBS1248970) was titrated at the desired concentration, and the primary antibody was His-tag antibody, pAb, Rabbit (Genscript, A00174) at a 1:5,000 dilution. For epitope selectivity assays, biotinylated SynEps were conjugated, DNP-conjugated AR-PCCs were titrated at a desired concentration, and the primary antibody was anti-DNP antibody produced in Rabbit (Sigma-Aldrich, D9656) at a 1:8,000 dilution. […] For binding tests in the context of mouse sera, the “titrated compound” described in the steps above was dispersed in a solution containing the desired concentration of mouse serum.

[3] = system: K. pneumoniae cells (strain BAA 1705); assay: Gentamicin protection assay: phagocytosis and opsonophagocytic killing (OPK) by macrophages; format: cell-based, Klebsiella pneumoniae; details: AR-PCC 5 μM, 1 h
Method: FIGS. 7A and 7B show a gentamicin protection assay that evaluates EPI-driven phagocytosis and opsonophagocytic killing (OPK) of K. pneumoniae cells by murine bone-marrow-derived macrophages. FIG. 7A is a flow diagram depicting the assay used to evaluate EPI-driven opsonophagocytic killing (OPK) of K. pneumoniae cells. Briefly, K. pneumoniae cells (strain BAA 1705) opsonized by EPIs (AR-PCCs) and anti-DNP antibodies were incubated with macrophages for 1 or 24 h. Macrophages were lysed, and the lysate was plated to obtain bacterial colonies that were subsequently counted. FIG. 7B is a plot of colony counts for various samples subjected to the OPK assay. […] All EPIs (AR-PCCs) were used at a 5 μM concentration, measurements were conducted in triplicate, and error bars reflect standard deviations. cy(LLFFA) is SEQ ID NO:11.
It also tested whether DNP-conjugated EPIs could promote the opsonophagocytic killing (OPK) of K. pneumoniae by macrophages. This was tested by using an OPK assay. Briefly, K. pneumoniae cells were treated with EPI and then anti-DNP antibody before being exposed to macrophages for either 6 or 24 hours. During this incubation period, macrophages that recognize K. pneumoniae cells will phagocytose them, and phagocytosed bacteria will remain viable for up to 6 hours, but within 24 hours are rendered inviable by OPK. Thus, macrophages were isolated after 6 and 24 hours of incubation with K. pneumoniae, lysed them, and plated and grew the lysate, which yielded bacterial colonies that reflect the phagocytosis (at 6 hrs) or OPK (at 24 hrs) of bacteria.
Given that cy(LLFFF)-DNP (SEQ ID NO:5) recruits antibodies to K. pneumoniae surfaces, it was expected that K. pneumoniae opsonized in this manner would be more susceptible to phagocytosis by macrophages. AR-PCC-driven phagocytosis and OPK were quantified by a gentamicin protection assay, as depicted in FIG. 7A. For this assay, K. pneumoniae cells (strain BAA 1705) were treated with cy(LLFFF)-DNP (SEQ ID NO:5), opsonized by anti-DNP antibodies, and then incubated with murine bone-marrow-derived macrophages (BMDMs). BMDMs were subsequently exposed to a solution containing gentamicin, to which K. pneumoniae strain BAA 1705 is susceptible, to kill any extracellular bacteria. Phagocytosed bacteria remain viable inside BMDMs for at least 1 h, yet are rendered inviable after 24 h by OPK (FIG. 13). Macrophages harvested at 1 h and 24 h were lysed and plated to generate bacterial colonies, which were enumerated to quantify phagocytosis and OPK.
Opsonophagocytic killing (OPK) assays. Klebsiella pneumoniae BAA1705 was treated with DNP-PCCs followed by incubation with anti-DNP antibody, as described above in the “Cell-Based ELISAs” section. These opsonized bacteria were then used to infect BMDMs at a multiplicity of infection of 50 for 0.5 h at 37° C. Bacteria were then washed by using RPMI 1640 Media and BMDMs were left in cell culture medium containing gentamicin (100 μg/ml). After 1 h and 24 h BMDMs were washed to remove gentamicin and intracellular bacteria were harvested by lysing BMDMs in RPMI media containing 0.2% Triton X 100. Bacterial CFUs were enumerated by plating onto LB agar. Bacterial counts at 1 h indicated the degree of opsonization while those at 24 h served as a measure of microbicidal activity of macrophages. For these measurements, anti-MrkA antibody and K. pneumoniae antiserum were used at dilutions of 5 μg/mL each.

[4] = strain BAA 1705, PCC 5 μM or lower

T1 sequence (P12267 23-202): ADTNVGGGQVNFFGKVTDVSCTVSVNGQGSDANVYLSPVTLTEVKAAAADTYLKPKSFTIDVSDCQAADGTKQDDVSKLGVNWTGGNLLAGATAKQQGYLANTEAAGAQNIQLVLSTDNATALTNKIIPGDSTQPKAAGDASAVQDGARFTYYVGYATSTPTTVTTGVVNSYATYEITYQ

cy(LLFFA): control compound differing from cy(LLFFF) by a single phenyl moiety ([Lys(N3)]LLFFA[Pra]; triazole 1-7)
whole-cell ELISA signal, MrkA-knockout KPPR1 ([1]; MrkA/B/C knockout KPPR1): ELISA intensities comparable to baseline | whole-cell ELISA signal at high PCC concentration, LB or G-CAA ([1]; strain BAA 1705, 50 μM PCC): strong and comparable ELISA signals | whole-cell ELISA 450 nm absorbance, cells cultured in G-CAA (high MrkA) [1, 4]: near-baseline absorbances | whole-cell ELISA 450 nm absorbance, cells cultured in LB (low MrkA) [1, 4]: near-baseline absorbances | whole-cell ELISA signal, wild type KPPR1 ([1]; wild type KPPR1 (ATCC 43816), G-CAA media, 5 μM down to 5 nM): much lower intensities; also recorded: Much lower binding

cy(TTFFF): additional MrkA ligand with lower affinity ([Lys(N3)]TTFFFX; bridge 1-7; not fully specified (residue 7, bridges); printed as cy(TTFFF))
affinities to MrkA (likely) [2]: ~1 µM | binding / affinity to full-length MrkA protein (ELISA signal) [2]: lower affinities to MrkA

cy(ALFFF): alanine-substituted cy(LLFFF) analogue ([Lys(N3)]ALFFFX; triazole 1-7; not fully specified (residue 7); printed as cy(ALFFF))
binding / affinity to full-length MrkA protein (ELISA signal) [2]: Modestly lower binding

cy(LLAFF): alanine-substituted cy(LLFFF) analogue ([Lys(N3)]LLAFFX; triazole 1-7; not fully specified (residue 7); printed as cy(LLAFF))
binding / affinity to full-length MrkA protein (ELISA signal) [2]: Modestly lower binding

cy(YRHLG): additional MrkA ligand with lower affinity (XYRHLG[Lys(N3)]; bridge 1-7; not fully specified (residue 1, bridges); printed as cy(YRHLG))
affinities to MrkA (likely) [2]: ~1 µM | binding / affinity to full-length MrkA protein (ELISA signal) [2]: lower affinities to MrkA

cy(LLFFA)-DNP: DNP-conjugated control cy(LLFFA) ([Lys(N3)]LLFFAX; triazole 1-7; not fully specified (residue 7); printed as cy(LLFFA); also: DNP label)
phagocytosis / OPK activity at 1 h, AR-PCC plus anti-DNP [3]: None of these treatments elicited phagocytosis above basal levels | phagocytosis at 1 h, AR-PCC only (no anti-DNP) [3]: None of these treatments elicited phagocytosis above basal levels

cy(LAFFF): alanine-substituted cy(LLFFF) analogue ([Lys(N3)]LAFFFX; triazole 1-7; not fully specified (residue 7); printed as cy(LAFFF))
binding / affinity to full-length MrkA protein (ELISA signal) [2]: Modestly lower binding

cy(LLFFF)+R6-DNP: optimized compound cy(LLFFF)+R6 tagged with DNP ([Lys(N3)]LLFFF[Pra]RRRRRR; bridge 1-7; not fully specified (bridges); also: tagged with DNP, position not given here)
phagocytosis / OPK activity at 1 h, AR-PCC plus anti-DNP [3]: comparable to that of cy(LLFFF)-DNP | phagocytosis at 1 h, AR-PCC only (no anti-DNP) [3]: None of these treatments elicited phagocytosis above basal levels | colony counts at 1 h, AR-PCC plus anti-DNP antibody ([3]; murine BMDMs): 85,000 CFU

cy(GVHRL): additional MrkA ligand with lower affinity (XGVHRL[Lys(N3)]; triazole 1-7; not fully specified (residue 1); printed as cy(GVHRL))
affinities to MrkA (likely) [2]: ~1 µM | binding / affinity to full-length MrkA protein (ELISA signal) [2]: lower affinities to MrkA
